Assay results taken from patent US8530404B2, “Compounds and methods for treatment of cancer” (FibroGen, Inc., priority 2005, dated 2013).
Read-outs that look alike come from different tables or passages of the source.

Columns and labels:
[1] = Body weight in H-460 xenograft mice (Example 1); type: in vivo, mouse
Protocol: Sizes of the primary tumors were measured through the skin with calipers once per week. Tumor volumes were calculated by the formula V═(W^2*L)/2. Body weight of the mice in each group was also measured once per week during the experimental period. All animals were sacrificed following thirty-two days of treatment. Primary tumors were excised and weighed on an electronic balance. Blood samples were taken during terminal sacrifice and placed in microhematocrit tubes containing EDTA. Complete Blood Counts (CBC) and reticulocyte analysis were performed with the Cell Dyn 3700 analyzer (Abbott Diagnostics), as described by the manufacturer.
Thus, differences in tumor progression as measured by mean tumor volumes could not be attributed to any generalized toxicity or suppression of normal metabolism that might have been detected by changes in body weights.

human A549 lung tumors [2] = experiment: Subcutaneously implanted human A549 lung tumor mouse xenograft (Example 2); type: in vivo
human A549 lung tumors [3] = experiment: as above; type: in vivo; settings: for tumor weight at necropsy, Mean / A549 mean tumor volume: 20 mg/kg PO; for increase in mean tumor volume: within 1 week (7 days) from start, 20 mg/kg, vehicle control 45%
From the text: Immuno-compromised athymic CD-1 nu/nu nude mice males (5-6 weeks old) were used in this study (Charles River Laboratories, Wilmington, Mass.). Animals were maintained in a HEPA-filtered environment during the experimental period. Cages, food, and bedding were autoclaved. Animal diets were obtained from Harlan Teklad (Madison, Wis.). […] A stock tumor was established by subcutaneously injecting a cell suspension into nude mice. The resulting tumor was maintained in nude mice subcutaneously as tumor stock prior to use. Tumor implantation was performed when the stock tumors were in log phase of growth. Before implantation, tumor tissue was harvested from stock mice and placed in RPMI-1640 medium. Necrotic tissues were dissected away and viable tissues were cut into 1-2 mm^2 pieces. Tumor fragments were then transplanted subcutaneously to the right flank of the nude mice. Treatment (administration of compounds of the present invention) was started when the inoculated tumors reached approximately 100 mm^3, and continued for four weeks. […] Sizes of the primary tumors were measured through the skin with calipers once per week. […] Body weight of the mice in each group was also measured once per week during the experimental period. All animals were sacrificed following thirty-two days of treatment. Primary tumors were excised and weighed on an electronic balance. Blood samples were taken during terminal sacrifice and placed in microhematocrit tubes containing EDTA. Complete Blood Counts (CBC) and reticulocyte analysis were performed with the Cell Dyn 3700 analyzer (Abbott Diagnostics), as described by the manufacturer. Procedures were carried out as described above for Example 1, with the following changes. The human H-460 lung cancer cell line was replaced by the human A549 lung cancer cell line. Xenografted H460 tumors are characterized by a high growth rate, while xenografted A549 tumors progress substantially more slowly. A549 has been characterized extensively. […] Hanze et al., (2003) Biochem Biophys Res Commun 312:571-577; Wedge et al., (2002) Cancer Res 62:4645-4655; and Abdollahi et al., (2003) Cancer Res 63:8890-8898.) Compound B treatment groups (6 mg/kg, 20 mg/kg) were replaced by compound D treatment groups (6 mg/kg, 20 mg/kg). Other experimental parameters were identical to those described in Example 1 above.

BNIP3 gene expression = experiment: In vivo BNIP3 gene expression in Swiss Webster mice (quantitative PCR); settings: Mus musculus, iv, 4 h, single 60 mg/kg i.v. dose, four hours after administration, normalized to 18S
Protocol: The effects of various compounds of the present invention on the expression of genes associated with tumor growth and progression (e.g., expression of genes associated with anti-proliferative effects) were examined in vivo as follows. In these studies, male Swiss Webster mice (25 g) were administered a single intravenous (i.v.) dose of various compounds (60 mg/kg) of the present invention via the tail vein. Four hours after administration of compound, the kidneys and liver were removed and preserved in RNAlater (Ambion). RNA isolation and cDNA synthesis was carried out as follows. Murine kidney tissue was added to TRIzol (Invitrogen) and homogenized using a 5-mm stainless steel bead for 4 minutes at 25 Hz in a Mixer Mill 300 (Qiagen). Homogenates were extracted with chloroform according to the manufacturer's instructions and aqueous supernatants were isolated. The aqueous supernatants were combined with equal volumes of 70% ethanol and then loaded onto RNeasy Mini spin columns (Qiagen). RNA was isolated according to the manufacturer's instructions.
Synthesis of cDNA from the isolated total RNA was carried out using Omniscript reverse transcriptase (Qiagen) and random primers according to the manufacturer's instructions. Measurement of gene expression levels in compound-treated animals and in vehicle-treated control animals was performed by quantitative PCR using TaqMan Universal PCR Master Mix (Applied Biosystems) and TaqMan Assay-on-Demand assays (Applied Biosystems) in a Prism 7000 system instrument (Applied Biosystems), according to manufacturer's instructions. The assays used were as follows: 18S ribosomal RNA, Hs99999901_s1; BNIP3, Mm00833810_g1; BNIP3L, Mm00786306_s1; NDRG1, Mm00440447_m1. Each PCR amplification reaction included a standard curve and a water blank. Data for gene expression levels for BNIP3, BNIP3L, and NDRG1 were normalized to that of 18S ribosomal RNA within each sample. Data is presented as fold change in specific mRNA levels relative to that of non-treated control animals.

[4] = read-out: fold change in BNIP3 mRNA level, kidney
[5] = read-out: fold change in BNIP3 mRNA level, liver

Compound: O=C(O)CNC(=O)c1nc(Cl)c2ccccc2c1O [Compound A, [(1-Chloro-4-hydroxy-isoquinoline-3-carbonyl)-amino]-acetic acid]
- mean animal body weight ([1]; day 0, 20 mg/kg PO): 25.2 grams
- mean animal body weight ([1]; day 0, 60 mg/kg PO): 24.5 grams
- mean animal body weight ([1]; day 10, 20 mg/kg PO): 30.1 grams
- mean animal body weight ([1]; day 10, 60 mg/kg PO): 30.0 grams
- mean animal body weight ([1]; day 17, 20 mg/kg PO): 30.5 grams
- mean animal body weight ([1]; day 17, 60 mg/kg PO): 30.5 grams
- mean animal body weight ([1]; day 24, 20 mg/kg PO): 30.6 grams
- mean animal body weight ([1]; day 24, 60 mg/kg PO): 30.6 grams
- mean animal body weight ([1]; day 31, 20 mg/kg PO): 30.3 grams
- mean animal body weight ([1]; day 31, 60 mg/kg PO): 29.9 grams
- tumor weight at necropsy, Mean (human A549 lung tumors [2]; 60 mg/kg PO): 0.81 g
- A549 mean tumor volume (human A549 lung tumors [2]; week 0, 60 mg/kg PO): 105 mm^3
- A549 mean tumor volume (human A549 lung tumors [2]; week 1, 60 mg/kg PO): 133 mm^3
- A549 mean tumor volume (human A549 lung tumors [2]; week 2, 60 mg/kg PO): 175 mm^3
- A549 mean tumor volume (human A549 lung tumors [2]; week 3, 60 mg/kg PO): 234 mm^3
- A549 mean tumor volume (human A549 lung tumors [2]; week 4, 60 mg/kg PO): 324 mm^3
- A549 mean tumor volume (human A549 lung tumors [2]; week 5, 20 mg/kg PO): 375 mm^3
- A549 mean tumor volume (human A549 lung tumors [2]; week 5, 60 mg/kg PO): 348 mm^3
- A549 mean tumor volume (human A549 lung tumors [2]; week 6, 20 mg/kg PO): 428 mm^3
- A549 mean tumor volume (human A549 lung tumors [2]; week 6, 60 mg/kg PO): 425 mm^3
- A549 mean tumor volume (human A549 lung tumors [2]; week 7, 20 mg/kg PO): 523 mm^3
- A549 mean tumor volume (human A549 lung tumors [2]; week 7, 60 mg/kg PO): 514 mm^3
- A549 mean tumor volume (human A549 lung tumors [2]; week 8, 20 mg/kg PO): 547 mm^3
- A549 mean tumor volume (human A549 lung tumors [2]; week 8, 60 mg/kg PO): 538 mm^3
- A549 mean tumor volume (human A549 lung tumors [2]; week 9, 20 mg/kg PO): 615 mm^3
- A549 mean tumor volume (human A549 lung tumors [2]; week 9, 60 mg/kg PO): 597 mm^3
- tumor weight at necropsy, Mean (human A549 lung tumors [3]): 0.76 g
- A549 mean tumor volume (human A549 lung tumors [3]; week 0): 100 mm^3
- A549 mean tumor volume (human A549 lung tumors [3]; week 1): 138 mm^3
- A549 mean tumor volume (human A549 lung tumors [3]; week 2): 173 mm^3
- A549 mean tumor volume (human A549 lung tumors [3]; week 3): 241 mm^3
- A549 mean tumor volume (human A549 lung tumors [3]; week 4): 328 mm^3

Compound: C[C@H](NC(=O)c1ncc2cc(Oc3ccccc3)ccc2c1O)C(=O)O [Compound B, (S)-2-[(4-Hydroxy-7-phenoxy-isoquinoline-3-carbonyl)-amino]-propionic acid]
- mean animal body weight ([1]; day 0, 6 mg/kg PO): 26.3 grams
- mean animal body weight ([1]; day 0, 20 mg/kg PO): 25.7 grams
- mean animal body weight ([1]; day 10, 6 mg/kg PO): 27.9 grams
- mean animal body weight ([1]; day 10, 20 mg/kg PO): 27.8 grams
- mean animal body weight ([1]; day 17, 6 mg/kg PO): 29.1 grams
- mean animal body weight ([1]; day 17, 20 mg/kg PO): 29.0 grams
- mean animal body weight ([1]; day 24, 6 mg/kg PO): 29.3 grams
- mean animal body weight ([1]; day 24, 20 mg/kg PO): 29.3 grams
- mean animal body weight ([1]; day 31, 6 mg/kg PO): 29.3 grams
- mean animal body weight ([1]; day 31, 20 mg/kg PO): 29.3 grams
- fold induction at 60 mg/kg (BNIP3 gene expression; [4]): 2.1

Compound: COc1ccc(Oc2ccc3c(O)c(C(=O)NCC(=O)O)ncc3c2)cc1 [Compound C, {[4-Hydroxy-7-(4-methoxy-phenoxy)-isoquinoline-3-carbonyl]-amino}-acetic acid]
- mean animal body weight ([1]; day 0, 20 mg/kg PO): 25.7 grams
- mean animal body weight ([1]; day 10, 20 mg/kg PO): 29.4 grams
- mean animal body weight ([1]; day 17, 20 mg/kg PO): 29.9 grams
- mean animal body weight ([1]; day 24, 20 mg/kg PO): 31.0 grams
- mean animal body weight ([1]; day 31, 20 mg/kg PO): 30.9 grams
- fold induction at 60 mg/kg (BNIP3 gene expression; [4]): 1.5
- fold induction at 60 mg/kg (BNIP3 gene expression; [5]): 3.5
- A549 mean tumor volume (human A549 lung tumors [2]; week 5, 20 mg/kg PO): 246 mm^3
- A549 mean tumor volume (human A549 lung tumors [2]; week 6, 20 mg/kg PO): 304 mm^3
- A549 mean tumor volume (human A549 lung tumors [2]; week 7, 20 mg/kg PO): 341 mm^3
- A549 mean tumor volume (human A549 lung tumors [2]; week 8, 20 mg/kg PO): 402 mm^3
- A549 mean tumor volume (human A549 lung tumors [2]; week 9, 20 mg/kg PO): 429 mm^3
- tumor weight at necropsy, Mean (human A549 lung tumors [3]): 0.50 g
- A549 mean tumor volume (human A549 lung tumors [3]; week 0): 102 mm^3
- A549 mean tumor volume (human A549 lung tumors [3]; week 1): 124 mm^3
- A549 mean tumor volume (human A549 lung tumors [3]; week 2): 152 mm^3
- A549 mean tumor volume (human A549 lung tumors [3]; week 3): 180 mm^3
- A549 mean tumor volume (human A549 lung tumors [3]; week 4): 208 mm^3
- increase in mean tumor volume (human A549 lung tumors [3]): 22%

Compound: Cc1nc(C(=O)NCC(=O)O)c(O)c2ccc(Oc3ccccc3)cc12 [Compound D, [(4-Hydroxy-1-methyl-7-phenoxy-isoquinoline-3-carbonyl)-amino]-acetic acid]
- fold induction at 60 mg/kg (BNIP3 gene expression; [4]): 5.8
- fold induction at 60 mg/kg (BNIP3 gene expression; [5]): 1.5
- tumor weight at necropsy, Mean (human A549 lung tumors [2]; 6 mg/kg PO): 0.51 g
- A549 mean tumor volume (human A549 lung tumors [2]; week 0, 6 mg/kg PO): 109 mm^3
- A549 mean tumor volume (human A549 lung tumors [2]; week 1, 6 mg/kg PO): 137 mm^3
- A549 mean tumor volume (human A549 lung tumors [2]; week 2, 6 mg/kg PO): 178 mm^3
- A549 mean tumor volume (human A549 lung tumors [2]; week 3, 6 mg/kg PO): 209 mm^3
- A549 mean tumor volume (human A549 lung tumors [2]; week 4, 6 mg/kg PO): 263 mm^3
- A549 mean tumor volume (human A549 lung tumors [2]; week 5, 6 mg/kg PO): 292 mm^3
- A549 mean tumor volume (human A549 lung tumors [2]; week 5, 20 mg/kg PO): 272 mm^3
- A549 mean tumor volume (human A549 lung tumors [2]; week 6, 6 mg/kg PO): 339 mm^3
- A549 mean tumor volume (human A549 lung tumors [2]; week 6, 20 mg/kg PO): 304 mm^3
- A549 mean tumor volume (human A549 lung tumors [2]; week 7, 6 mg/kg PO): 375 mm^3
- A549 mean tumor volume (human A549 lung tumors [2]; week 7, 20 mg/kg PO): 373 mm^3
- A549 mean tumor volume (human A549 lung tumors [2]; week 8, 6 mg/kg PO): 431 mm^3
- A549 mean tumor volume (human A549 lung tumors [2]; week 8, 20 mg/kg PO): 411 mm^3
- A549 mean tumor volume (human A549 lung tumors [2]; week 9, 6 mg/kg PO): 476 mm^3
- A549 mean tumor volume (human A549 lung tumors [2]; week 9, 20 mg/kg PO): 466 mm^3
- tumor weight at necropsy, Mean (human A549 lung tumors [3]): 0.58 g
- A549 mean tumor volume (human A549 lung tumors [3]; week 0): 106 mm^3
- A549 mean tumor volume (human A549 lung tumors [3]; week 1): 126 mm^3
- A549 mean tumor volume (human A549 lung tumors [3]; week 2): 148 mm^3
- A549 mean tumor volume (human A549 lung tumors [3]; week 3): 193 mm^3
- A549 mean tumor volume (human A549 lung tumors [3]; week 4): 227 mm^3
- increase in mean tumor volume (human A549 lung tumors [3]): 20%

Compound: O=C(O)CNC(=O)c1ncc2cc(Oc3ccc(F)cc3)ccc2c1O [Compound E, {[7-(4-fluoro-phenoxy)-4-hydroxy-isoquinoline-3-carbonyl]-amino}-acetic acid]
- fold induction at 60 mg/kg (BNIP3 gene expression; [4]): 2.1
- fold induction at 60 mg/kg (BNIP3 gene expression; [5]): 1.8
